According to paper PMC12316891, “A bottom-up approach to find lead compounds in expansive chemical spaces” (Communications Chemistry, 2025):
Like-named read-outs stand apart in the source and are kept apart here.

Columns and labels:
BRD4 (BD1) [1] = molecular target: T1, BRD4 (BD1) (Homo sapiens, UniProt O60885); test: Competitive HTRF TR-FRET binding assay (displacement of acetylated histone H4 peptide)
T1 construct: A pET28 plasmid containing residues 44–168 of BRD4 (BD1), a 6xHis tag, a TEV protease cleavage site; 6xHis (N, cleaved yes); made in house; host or cells: E. coli Rosetta (D3)
Description: To further quantitatively characterize the DSF/SPR hits compounds obtained in the single-dose screenings, we selected HTRF TR-FRET. Specifically, we employed a competitive HTRF TR-FRET experiment to measure the compound’s capacity to displace an acetylated peptide from the binding site of BRD4 (BD1). For each molecule, a 16-point concentration curve was titrated against the peptide-BRD (BD1) complex and incubated for 1.5 h. A compound was considered a positive binder if we could fit its titration curve to a sigmoidal curve to determine its IC50. […] Compound screening was carried out in 384-well, white, round-bottom, small-volume plates (CORNING) in a final volume of 20 µL of 50 mM HEPES (pH 7.4), 50 mM NaCl, 400 mM KF, 0.5 mM CHAPS, and 0.05% BSA. […] Then, the labeled anti-His6-XL665 antibody (CisBio) (10 nM) was added to the mixture and incubated for 15 min, before the Eu3+ cryptate-conjugated streptavidin (2 nM) (CisBio) was added and incubated for 15 min. All incubations were performed at room temperature. […] Titration of (+)−JQ1 was used as a positive control for each experiment.

His6-BRD4 (BD1) = molecular target: T2, His6-BRD4 (BD1) (Homo sapiens, UniProt O60885); test: Surface plasmon resonance (SPR) single-dose screening; type: binding; set-up: key to SPR RESULT: Positive: compounds were considered as SPR hits also when their average signal was further than two standard deviations apart from the average signal of the blank samples (1% DMSO); conditions: for RUs at [10 µM]: SPR, compound 10 µM, 1% DMSO, n = 2, decimal comma; for SPR RESULT: single dose 10 µM, n = 2
T2 construct: A pET28 plasmid containing residues 44–168 of BRD4 (BD1), a 6xHis tag, a TEV protease cleavage site; made in house; host or cells: E. coli Rosetta (D3)

BRD4 (BD1) [2] = molecular target: T1, BRD4 (BD1); test: Differential scanning fluorimetry (DSF) single-dose thermal shift screening; type: binding; conditions: DSF, compound 10 µM, BRD4 (BD1) 2 µM, n = 3, decimal comma; for ΔTm at 10 µM: read-out: ΔTm ºC at [10 µM]
[3] = 16-point titration 0.1 nM to 10 µM, n = 2, Negative = curve could not be fitted to a sigmoidal curve
[4] = 16-point titration 0.1 nM to 10 µM, n = 2, Negative = curve could not be fitted to a sigmoidal curve, read-out: TR-FRET IC50

Row | Compound | TR-FRET IC50 (nM) (BRD4 (BD1) [1]; [3]) | RUs at [10 µM] (His6-BRD4 (BD1)) | SPR RESULT (His6-BRD4 (BD1)) | ΔTm at 10 µM (BRD4 (BD1) [2]) [°C] | IC50 (BRD4 (BD1) [1]; [4]) [nM] | IC50 (BRD4 (BD1) [1]) [nM] | ΔTm ºC at [10 µM] (BRD4 (BD1) [2])
1 | COC(C)CC(=O)N1CCC(C2(O)CCN(C(=O)c3sc4nnc(C)c(C)c4c3N)C2)CC1 (stereo not shown) [Compound 39, COC(C)CC(=O)N1CCC(CC1)C2(O)CCN(C2)C(=O)C=3SC=4N=NC(C)=C(C)C4C3N] |  | 11,34 ± 6,3 RUs | Negative | 1.12 | 78.9 |  | 
2 | CCCc1c(C(=O)N2CCOC(CNC(=O)c3cc(C)ccn3)C2)[nH]c(C)c1C(C)=O (stereo not shown) [Compound 40, CCCC1=C(NC(C)=C1C(=O)C)C(=O)N2CCOC(CNC(=O)C=3C=C(C)C=CN3)C2] |  | 9,46 ± 0,53 RUs | Positive | 1.13 | 372 |  | 
3 | Cn1cc(C(=O)Nc2ccc(OCc3cnccn3)cc2)c2ccccc2c1=O [Compound 42, CN1C=C(C(=O)NC=2C=CC(OCC=3C=NC=CN3)=CC2)C=4C=CC=CC4C1=O] |  | 34,2 ± 10,95 RUs | Positive | 1.04 | 169 |  | 
4 | COc1ccc(-n2c(C)nnc2SCC(=O)NCc2cc(C)nc(C)c2)cc1 [Compound 44, COC=1C=CC(=CC1)N2C(C)=NN=C2SCC(=O)NCC=3C=C(C)N=C(C)C3] |  | 17,34 ± 14,82 RUs | Negative | 1.68 | 5.83 |  | 
5 | COc1ccc(-n2c(C)nnc2SCC(=O)N2CC3(CCN(C)CC3)C2)cc1 [Compound 45, COC=1C=CC(=CC1)N2C(C)=NN=C2SCC(=O)N3CC4(C3)CCN(C)CC4] | Negative | 9,8 ± 3,73 RUs | Negative | 2.18 |  |  | 
6 | CC(NS(=O)(=O)c1cccc(-c2nnnn2C)c1)C1CCN(Cc2ccccc2)C1 (stereo not shown) [Compound 46, CC(NS(=O)(=O)C=1C=CC=C(C1)C2=NN=NN2C)C3CCN(CC=4C=CC=CC4)C3] |  | 19,71 ± 0,01 RUs | Positive | 2.47 | 240 |  | 
7 | COc1ccc(-c2cc(NC(=O)C(=O)NC(C)c3nnc4ncccn34)ccc2OC)cc1 (stereo not shown) [Compound 47, COC=1C=CC(=CC1)C=2C=C(NC(=O)C(=O)NC(C)C3=NN=C4N=CC=CN34)C=CC2OC] |  | 25,41 ± 18,52 RUs | Negative | 1.25 | 256 |  | 
8 | COc1ccc(-n2c(C)nnc2SCC(=O)N(c2ccccc2)C2CC2)cc1 [Compound 48, COC=1C=CC(=CC1)N2C(C)=NN=C2SCC(=O)N(C3CC3)C=4C=CC=CC4] |  | 4,63 ± 0,03 RUs | Negative | 2.35 | 53.2 |  | 
9 | COc1ccc(-n2c(C)nnc2SCC(=O)NC2CCC3(CNC3)C2)cc1 (stereo not shown) [Compound 49, COC=1C=CC(=CC1)N2C(C)=NN=C2SCC(=O)NC3CCC4(CNC4)C3] |  | 17,72 ± 5,47 RUs | Negative | 2.73 | 105 |  | 
10 | CNC(=O)c1ccc(-n2nc(Cn3cccn3)nc2-c2cn(C)c(=O)c3ccccc23)cc1 [Compound 50, CNC(=O)C=1C=CC(=CC1)N2N=C(CN3C=CC=N3)N=C2C4=CN(C)C(=O)C=5C=CC=CC45] |  | 10,43 ± 9,29 RUs | Negative | 2.29 | 1130 |  | 
11 | CN(C)S(=O)(=O)c1ccc(-n2nc(-c3cccnc3)nc2-c2cn(C)c(=O)c3ccccc23)cc1 [Compound 51, CN(C)S(=O)(=O)C=1C=CC(=CC1)N2N=C(N=C2C3=CN(C)C(=O)C=4C=CC=CC34)C=5C=CC=NC5] |  | 29,75 ± 5,31 RUs | Positive | 3.61 | 39.3 |  | 
12 | COc1ccc(-n2c(C)nnc2SCC(=O)NC2CCN(C(=O)c3cc(Cl)sc3Cl)CC2C)cc1 (stereo not shown) [Compound 52, COC=1C=CC(=CC1)N2C(C)=NN=C2SCC(=O)NC3CCN(CC3C)C(=O)C=4C=C(Cl)SC4Cl] |  | 31,14 ± 2,8 RUs | Positive | -0.23 | 266 |  | 
13 | CN(C)C(=O)Sc1cc(NC(=O)c2cn(C)c(=O)c3ccccc23)ccc1Cl [Compound 53, CN(C)C(=O)SC=1C=C(NC(=O)C2=CN(C)C(=O)C=3C=CC=CC23)C=CC1Cl] |  | 28,62 ± 5,34 RUs | Positive | 1.09 | 1040 |  | 
14 | COc1ccc(-n2c(C)nnc2SCC(=O)Nc2ccc(C)c(Cl)c2Cl)cc1 [Compound 55, COC=1C=CC(=CC1)N2C(C)=NN=C2SCC(=O)NC=3C=CC(C)=C(Cl)C3Cl] |  | 11,56 ± 1,14 RUs | Positive |  |  | 1020 | 3,66 ± 0,12 ºC
15 | COC1(CNC(=O)C2=C(Cl)CCCC2)CCN(C(=O)c2sc3nnc(C)c(C)c3c2N)CC1 [Compound 57, COC1(CNC(=O)C2=C(Cl)CCCC2)CCN(CC1)C(=O)C=3SC=4N=NC(C)=C(C)C4C3N] | Negative | 26,22 ± 6,56 RUs | Positive | 0.48 |  |  | 
16 | Cc1nnc2sc(C(=O)N3CCC4(CCC(NC(=O)Cc5csc(Cl)c5)CC4)CC3)c(N)c2c1C [Compound 60, CC=1N=NC=2SC(C(=O)N3CCC4(CCC(CC4)NC(=O)CC5=CSC(Cl)=C5)CC3)=C(N)C2C1C] | Negative | 48,37 ± 15,77 RUs | Positive | 0.94 |  |  | 
17 | CCCc1c(C(=O)N2CCCC2Cn2cc(-c3cc(C)nc(C)c3)nn2)[nH]c(C)c1C(C)=O (stereo not shown) [Compound 61, CCCC1=C(NC(C)=C1C(=O)C)C(=O)N2CCCC2CN3C=C(N=N3)C=4C=C(C)N=C(C)C4] |  | 15,14 ± 5,89 RUs | Negative | 0.49 | 79.4 |  | 
18 | COC1CC(CCC(=O)NC2CC3(CCN(C(=O)c4occc4Br)C3)Oc3ccccc32)C1 (stereo not shown) [Compound 62, COC1CC(CCC(=O)NC2CC3(CCN(C3)C(=O)C=4OC=CC4Br)OC=5C=CC=CC25)C1] | Negative | 23,54 ± 4,84 RUs | Positive | -0.15 |  |  | 
19 | COC1(CNC(=O)c2nscc2Br)CN(C(=O)C2CCS(=O)(=O)N2)C1 (stereo not shown) [Compound 63, COC1(CNC(=O)C2=NSC=C2Br)CN(C1)C(=O)C3CCS(=O)(=O)N3] | Negative | 13,51 ± 3,27 RUs | Negative | 0.7 |  |  | 

The next lines start with results.

Row | TR-FRET IC50 (nM) (BRD4 (BD1) [1]; [3]) | RUs at [10 µM] (His6-BRD4 (BD1)) | SPR RESULT (His6-BRD4 (BD1)) | ΔTm at 10 µM (BRD4 (BD1) [2]) [°C] | IC50 (BRD4 (BD1) [1]; [4]) [nM] | Compound | IC50 (BRD4 (BD1) [1]) [nM] | ΔTm ºC at [10 µM] (BRD4 (BD1) [2])
20 | Negative | 30,29 ± 13,03 RUs | Negative | 0.25 |  | COc1ccc(CNc2ccc3ccn(C)c(=O)c3c2)cc1OCC(C)C [Compound 38, COC=1C=CC(CNC=2C=CC=3C=CN(C)C(=O)C3C2)=CC1OCC(C)C] |  | 
21 | Negative | 1,13 ± 7,64 RUs | Negative | 1.7 |  | Cc1nnnn1-c1cc(F)cc(C(=O)N2CCN(C(=O)C(=O)NCC3CC3)C(C(C)C)C2)c1 (stereo not shown) [Compound 41, CC(C)C1CN(CCN1C(=O)C(=O)NCC2CC2)C(=O)C=3C=C(F)C=C(C3)N4N=NN=C4C] |  | 
22 |  | 32,1 ± 9,99 RUs | Positive | 1.99 | 1590 | COc1cccc(-n2c(C)nnc2SCC(=O)Nc2ccc(C(F)F)cc2)c1 [Compound 43, COC=1C=CC=C(C1)N2C(C)=NN=C2SCC(=O)NC=3C=CC(=CC3)C(F)F] |  | 
23 |  | 17,03 ± 5,1 RUs | Negative | 2.91 | 277 | CCCc1c(C(=O)N2CCC(Cc3cn(C4CC4)nn3)CC2)[nH]c(C)c1C(C)=O [Compound 54, CCCC1=C(NC(C)=C1C(=O)C)C(=O)N2CCC(CC3=CN(N=N3)C4CC4)CC2] |  | 
24 |  | 10,07 ± 8,75 RUs | Negative | 3.79 | 722 | CCn1nnc2cc(C(=O)N3CCC(c4nnc(CNC(=O)c5ccncn5)s4)CC3)ccc21 [Compound 56, CCN1N=NC=2C=C(C=CC12)C(=O)N3CCC(CC3)C4=NN=C(CNC(=O)C=5C=CN=CN5)S4] |  | 
25 |  | 75,54 ± 39,86 RUs | Negative | 2.28 | 511 | COc1cccc(-n2nc(-c3cscn3)nc2-c2cn(C)c(=O)c3ccccc23)c1 [Compound 58, COC=1C=CC=C(C1)N2N=C(N=C2C3=CN(C)C(=O)C=4C=CC=CC34)C5=CSC=N5] |  | 
26 | Negative | 13,73 ± 9,32 RUs | Negative | 4.12 |  | Cc1nnc2sc(C(=O)N(C)C3CN(C(=O)CCC(C)N(C)C)CC34CC4)c(N)c2c1C (stereo not shown) [Compound 59, CC(CCC(=O)N1CC(N(C)C(=O)C=2SC=3N=NC(C)=C(C)C3C2N)C4(CC4)C1)N(C)C] |  | 
27 | Negative | 25,91 ± 0,65 RUs | Positive | 0.1 |  | Cc1cc(C)n2nc(CC(=O)NCC(C)(C)Cn3cc(-c4sccc4C)nn3)nc2n1 [Compound 64, CC=1C=CSC1C2=CN(CC(C)(C)CNC(=O)CC=3N=C4N=C(C)C=C(C)N4N3)N=N2] |  | 
28 |  | 7,82 ± 0,92 RUs | Negative | 0.32 | 28.7 | CNC(=O)C1(C(=O)N[C@@H]2CCCC[C@H]2NC(=O)c2cnsn2)CCC1 [Compound 65, CNC(=O)C1(CCC1)C(=O)N[C@@H]2CCCC[C@H]2NC(=O)C=3C=NSN3] |  | 
